Experimental data taken from the supplement of paper PMC10627819.

Tests used:
S. aureus DSM 20231 = experiment: fitness (endpoint OD595 vs no drug) (fraction); higher = more growth
Summary of the method: (§1)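 With the first reading as background, OD595 was measured every 30 min for 14 h in 384-well plates kept at 37 °C and inoculated at OD595 0.01. TSB, LB Lennox or CY was the medium. Fitness is the optical density at the transition into stationary phase divided by the robust mean of no-drug control wells, with a cap of 1.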

S. pneumoniae D39V = experiment: as above
Summary of the method: as §1

[1] = first compound 250 µg/mL, partner 0.125 µg/mL
[2] = first compound 250 µg/mL, partner 0.25 µg/mL
[3] = first compound 250 µg/mL, partner 0.5 µg/mL
[4] = first compound 500 µg/mL, partner 0.5 µg/mL
[5] = first compound 1000 µg/mL, partner 0.125 µg/mL
[6] = first compound 1000 µg/mL, partner 0.5 µg/mL
[7] = first compound 250 µg/mL, partner 0.75 µg/mL
[8] = first compound 250 µg/mL, partner 1.5 µg/mL
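Note: OD595 on entry to stationary phase over no-drug wells; at most 1.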

CC(=O)Oc1ccccc1C(=O)O [Acetylsalicylic acid] + CO/N=C(\C(=O)N[C@@H]1C(=O)N2C(C(=O)[O-])=C(C[N+]3(C)CCCC3)CS[C@H]12)c1csc(N)n1 [Cefepime]
fitness (S. aureus DSM 20231; [1]): 0.856 | fitness (S. aureus DSM 20231; [2]): 0.83 | fitness (S. aureus DSM 20231; [3]): 0.78 | fitness (S. aureus DSM 20231; first compound 500 µg/mL, partner 0.125 µg/mL): 0.712 | fitness (S. aureus DSM 20231; first compound 500 µg/mL, partner 0.25 µg/mL): 0.683 | fitness (S. aureus DSM 20231; [4]): 0.666 | fitness (S. aureus DSM 20231; [5]): 0.624 | fitness (S. aureus DSM 20231; [6]): 0.612 | fitness (S. pneumoniae D39V; first compound 250 µg/mL, partner 0.007 µg/mL): 0.988 | fitness (S. pneumoniae D39V; first compound 250 µg/mL, partner 0.0078 µg/mL): 0.992 | fitness (S. pneumoniae D39V; first compound 250 µg/mL, partner 0.014 µg/mL): 0.99 | fitness (S. pneumoniae D39V; first compound 250 µg/mL, partner 0.0155 µg/mL): ≥ 1 | fitness (S. pneumoniae D39V; first compound 250 µg/mL, partner 0.028 µg/mL): 0.927 | fitness (S. pneumoniae D39V; first compound 250 µg/mL, partner 0.031 µg/mL): 0.964 | fitness (S. pneumoniae D39V; first compound 500 µg/mL, partner 0.007 µg/mL): ≥ 1 | fitness (S. pneumoniae D39V; first compound 500 µg/mL, partner 0.0078 µg/mL): ≥ 1 | fitness (S. pneumoniae D39V; first compound 500 µg/mL, partner 0.014 µg/mL): 0.995 | fitness (S. pneumoniae D39V; first compound 500 µg/mL, partner 0.0155 µg/mL): ≥ 1 | fitness (S. pneumoniae D39V; first compound 500 µg/mL, partner 0.028 µg/mL): 0.896 | fitness (S. pneumoniae D39V; first compound 500 µg/mL, partner 0.031 µg/mL): ≥ 1 | fitness (S. pneumoniae D39V; first compound 1000 µg/mL, partner 0.007 µg/mL): 0.927 | fitness (S. pneumoniae D39V; first compound 1000 µg/mL, partner 0.0078 µg/mL): 0.915 | fitness (S. pneumoniae D39V; first compound 1000 µg/mL, partner 0.014 µg/mL): 0.969 | fitness (S. pneumoniae D39V; first compound 1000 µg/mL, partner 0.0155 µg/mL): 0.898 | fitness (S. pneumoniae D39V; first compound 1000 µg/mL, partner 0.028 µg/mL): 0.865 | fitness (S. pneumoniae D39V; first compound 1000 µg/mL, partner 0.031 µg/mL): 0.888

CC(=O)Oc1ccccc1C(=O)O [Acetylsalicylic acid] + CO[C@@]12[C@H](COC(N)=O)C3=C(C(=O)C(C)=C(N)C3=O)N1C[C@@H]1N[C@@H]12 [Mitomycin C]
fitness (S. aureus DSM 20231; first compound 250 µg/mL, partner 0.0156 µg/mL): 0.731 | fitness (S. aureus DSM 20231; first compound 250 µg/mL, partner 0.0312 µg/mL): 0.674 | fitness (S. aureus DSM 20231; first compound 250 µg/mL, partner 0.0625 µg/mL): 0.559 | fitness (S. aureus DSM 20231; first compound 500 µg/mL, partner 0.0156 µg/mL): 0.612 | fitness (S. aureus DSM 20231; first compound 500 µg/mL, partner 0.0312 µg/mL): 0.579 | fitness (S. aureus DSM 20231; first compound 500 µg/mL, partner 0.0625 µg/mL): 0.483 | fitness (S. aureus DSM 20231; first compound 1000 µg/mL, partner 0.0156 µg/mL): 0.446 | fitness (S. pneumoniae D39V; first compound 250 µg/mL, partner 0.001075 µg/mL): ≥ 1 | fitness (S. pneumoniae D39V; first compound 250 µg/mL, partner 0.002 µg/mL): 0.703 | fitness (S. pneumoniae D39V; first compound 250 µg/mL, partner 0.00215 µg/mL): 0.888 | fitness (S. pneumoniae D39V; first compound 250 µg/mL, partner 0.004 µg/mL): 0.733 | fitness (S. pneumoniae D39V; first compound 250 µg/mL, partner 0.0043 µg/mL): 0.8 | fitness (S. pneumoniae D39V; first compound 250 µg/mL, partner 0.008 µg/mL): 0.548 | fitness (S. pneumoniae D39V; first compound 500 µg/mL, partner 0.001075 µg/mL): ≥ 1 | fitness (S. pneumoniae D39V; first compound 500 µg/mL, partner 0.002 µg/mL): 0.673 | fitness (S. pneumoniae D39V; first compound 500 µg/mL, partner 0.00215 µg/mL): 0.904 | fitness (S. pneumoniae D39V; first compound 500 µg/mL, partner 0.004 µg/mL): 0.657 | fitness (S. pneumoniae D39V; first compound 500 µg/mL, partner 0.0043 µg/mL): 0.811 | fitness (S. pneumoniae D39V; first compound 500 µg/mL, partner 0.008 µg/mL): 0.454 | fitness (S. pneumoniae D39V; first compound 1000 µg/mL, partner 0.001075 µg/mL): ≥ 1 | fitness (S. pneumoniae D39V; first compound 1000 µg/mL, partner 0.002 µg/mL): 0.416 | fitness (S. pneumoniae D39V; first compound 1000 µg/mL, partner 0.00215 µg/mL): 0.868 | fitness (S. pneumoniae D39V; first compound 1000 µg/mL, partner 0.004 µg/mL): 0.426 | fitness (S. pneumoniae D39V; first compound 1000 µg/mL, partner 0.0043 µg/mL): 0.774 | fitness (S. pneumoniae D39V; first compound 1000 µg/mL, partner 0.008 µg/mL): 0.335

CC(=O)Oc1ccccc1C(=O)O [Acetylsalicylic acid] + COc1cc(Cc2cnc(N)nc2N)cc(OC)c1OC [Trimethoprim]
fitness (S. aureus DSM 20231; [1]): 0.582 | fitness (S. aureus DSM 20231; [2]): 0.516 | fitness (S. aureus DSM 20231; [3]): 0.225 | fitness (S. aureus DSM 20231; first compound 250 µg/mL, partner 1 µg/mL): 0.0606 | fitness (S. aureus DSM 20231; [4]): 0.276 | fitness (S. aureus DSM 20231; first compound 500 µg/mL, partner 1 µg/mL): 0.0647 | fitness (S. aureus DSM 20231; [5]): 0.4 | fitness (S. aureus DSM 20231; [6]): 0.23 | fitness (S. aureus DSM 20231; first compound 1000 µg/mL, partner 1 µg/mL): 0.0318

CC(=O)Oc1ccccc1C(=O)O [Acetylsalicylic acid] + N[C@@H]1CONC1=O [Cycloserine D]
fitness (S. aureus DSM 20231; first compound 250 µg/mL, partner 0.375 µg/mL): 0.96 | fitness (S. aureus DSM 20231; [7]): 0.953 | fitness (S. aureus DSM 20231; [8]): 0.93

CC(=O)Oc1ccccc1C(=O)O [Acetylsalicylic acid] + O=C(N[C@H](CO)[C@H](O)c1ccc([N+](=O)[O-])cc1)C(Cl)Cl [Chloramphenicol]
fitness (S. aureus DSM 20231; [7]): 0.688 | fitness (S. aureus DSM 20231; [8]): 0.498 | fitness (S. aureus DSM 20231; first compound 250 µg/mL, partner 3 µg/mL): 0.136 | fitness (S. aureus DSM 20231; first compound 500 µg/mL, partner 3 µg/mL): 0.098 | fitness (S. aureus DSM 20231; first compound 1000 µg/mL, partner 0.75 µg/mL): 0.307 | fitness (S. aureus DSM 20231; first compound 1000 µg/mL, partner 1.5 µg/mL): 0.225 | fitness (S. aureus DSM 20231; first compound 1000 µg/mL, partner 3 µg/mL): 0.0799

CN(C)[C@@H]1C(O)=C(C(N)=O)C(=O)[C@@]2(O)C(O)=C3C(=O)c4c(O)ccc(Cl)c4[C@@](C)(O)[C@H]3C[C@@H]12 [Chlortetracycline] + CCCCCCCCCC(=O)N[C@@H]1[C@H]([C@@H]([C@H](O[C@H]1OC2=C3C=C4C=C2OC5=C(C=C(C=C5)[C@H]([C@H]6C(=O)N[C@@H](C7=C(C(=CC(=C7)O)OC8[C@H]([C@H]([C@@H]([C@H](O8)CO)O)O)O)C9=C(C=CC(=C9)[C@H](C(=O)N6)NC(=O)[C@@H]4NC(=O)[C@@H]1C2=CC(=CC(=C2)OC2=C(C=CC(=C2)[C@H](C(=O)N[C@H](CC2=CC(=C(O3)C=C2)Cl)C(=O)N1)N)O)O)O)C(=O)O)O[C@H]1[C@@H]([C@H]([C@@H]([C@H](O1)CO)O)O)NC(=O)C)Cl)CO)O)O [Teicoplanin]
fitness (S. aureus DSM 20231; first compound 0.006 µg/mL, partner 0.1562 µg/mL, one replicate, main component drawn): 0.707 | fitness (S. aureus DSM 20231; first compound 0.006 µg/mL, partner 0.3125 µg/mL, one replicate, main component drawn): 0.905 | fitness (S. aureus DSM 20231; first compound 0.006 µg/mL, partner 0.625 µg/mL, one replicate, main component drawn): 0.997 | fitness (S. aureus DSM 20231; first compound 0.012 µg/mL, partner 0.1562 µg/mL, main component drawn): 0.656 | fitness (S. aureus DSM 20231; first compound 0.012 µg/mL, partner 0.625 µg/mL, main component drawn): 0.756 | fitness (S. aureus DSM 20231; first compound 0.048 µg/mL, partner 0.1562 µg/mL, main component drawn): 0.0926 | fitness (S. aureus DSM 20231; first compound 0.048 µg/mL, partner 0.3125 µg/mL, main component drawn): 0.0866 | fitness (S. aureus DSM 20231; first compound 0.048 µg/mL, partner 0.625 µg/mL, main component drawn): 0.0794
